For 25 compounds, EC50 results are on record in US9351955B2, “Compounds and pharmaceutical compositions thereof for the treatment of cystic fibrosis” (Galapagos NV, priority 2013, dated 2016).

In experiment [1] the target is T1, CFTR ΔF508 mutant (Homo sapiens, UniProt P13569, DEL508-508).
T1 construct: expressed in transfected cells; host or cells: CFBE41o- (adenoviral transduction)
Briefly: YFP-halide influx assay for the CFTR-ΔF508 mutation (384 well, CFBE41o- cells, FDSS/μCell). Particulars: forskolin 10.67 μM, fluorescence after 36 seconds, read-out: EC50 measured by YFP-halide influx assay for the CFTR-ΔF508. Type of experiment: cell-based. An excerpt:
6.2. YFP-Halide Influx Assay for the CFTR-ΔF508 Mutation
The YFP halide influx assay measures the functionality of the cystic fibrosis Transmembrane Conductance regulator (CFTR) channels in the cystic fibrosis bronchial epithelium cell line CFBE41o-. The assay is used to evaluate the capacity of compounds to increase the open probability of existing CFTR channels in the membrane. It makes use of the observation that the yellow fluorescent protein (YFP) variant YFP H148Q, I152L has its fluorescence substantially quenched by halide ions like Cl— and I— (Galietta et al., 2001; Nagai et al., 2002).
For this purpose, CFBE410-cells are seeded in 384 well plates (3000 CFBE cells/well). One day after seeding, the CFBE cells are transduced with adenoviral vectors that direct the expression of the CFTR ΔF508 mutant and of the YFP reporter. Cells are incubated at 27° C., 5% CO2 for 24 hours so as to allow for the proper folding and migration to the membrane of the CFTR channel or treated with a CFTR modulator during 24 h at 37° C.
The I— induced quenching of fluorescence is recorded […] immediately after injection of I— for 2 min on an FDSS/μCell (Hamamatsu). The capacity of a compound to increase the channel opening is directly correlated with the decrease in fluorescence, and is expressed as (1−(fluorescence after 36 seconds (F)/fluorescence before injection (F0))) and an EC50 can be derived from a (1−F/F0) vs compound concentration plot.

In experiment [2] the target is T2, CFTR G551D mutant (Homo sapiens, UniProt P13569, G551D).
T2 construct: expressed in transfected cells; host or cells: HEK293 (reverse transfection with plasmids)
Briefly: YFP-halide influx assay for the CFTR-G551D mutation (HEK293 cells). Particulars: HEK293 cells expressing CFTR G551D and YFP reporter; forskolin 10.67 μM; read-out: EC50 measured by YFP-halide influx assay for the CFTR-G551D. Type of experiment: cell-based. From the text: 6.3. YFP-Halide Influx Assay for the CFTR-G551D Mutation
The YFP halide influx assay measures the functionality of the cystic fibrosis Transmembrane Conductance regulator (CFTR) channels. The assay is used to evaluate the capacity of compounds to increase the channel opening of existing mutant CFTR channels in the membrane. It makes use of the observation that the yellow fluorescent protein (YFP) variant YFP H148Q, I152L, F47L has its fluorescence substantially quenched by halide ions like Cl^− and I^−. (Galietta et al., 2001)
For this purpose, HEK293-cells are seeded in 96 well plates. During seeding, the cells are reverse-transfected with plasmid vectors that direct the expression of the CFTR G551D mutant and of the YFP reporter. Cells are incubated at 37° C., 5% CO2 for 24 hours so as to allow for sufficient expression of the CFTR protein.
The I^−-induced quenching of fluorescence is recorded immediately after injection of I^− for 7 seconds. The capacity of a compound to increase the channel opening is directly correlated with the decrease in fluorescence, and is expressed as (1−(fluorescence after 7 seconds (F)/fluorescence before injection (F0))) and an EC50 can be derived from a (1−F/F0) vs compound concentration plot.

T2 sequence (P13569 whole entry G551D): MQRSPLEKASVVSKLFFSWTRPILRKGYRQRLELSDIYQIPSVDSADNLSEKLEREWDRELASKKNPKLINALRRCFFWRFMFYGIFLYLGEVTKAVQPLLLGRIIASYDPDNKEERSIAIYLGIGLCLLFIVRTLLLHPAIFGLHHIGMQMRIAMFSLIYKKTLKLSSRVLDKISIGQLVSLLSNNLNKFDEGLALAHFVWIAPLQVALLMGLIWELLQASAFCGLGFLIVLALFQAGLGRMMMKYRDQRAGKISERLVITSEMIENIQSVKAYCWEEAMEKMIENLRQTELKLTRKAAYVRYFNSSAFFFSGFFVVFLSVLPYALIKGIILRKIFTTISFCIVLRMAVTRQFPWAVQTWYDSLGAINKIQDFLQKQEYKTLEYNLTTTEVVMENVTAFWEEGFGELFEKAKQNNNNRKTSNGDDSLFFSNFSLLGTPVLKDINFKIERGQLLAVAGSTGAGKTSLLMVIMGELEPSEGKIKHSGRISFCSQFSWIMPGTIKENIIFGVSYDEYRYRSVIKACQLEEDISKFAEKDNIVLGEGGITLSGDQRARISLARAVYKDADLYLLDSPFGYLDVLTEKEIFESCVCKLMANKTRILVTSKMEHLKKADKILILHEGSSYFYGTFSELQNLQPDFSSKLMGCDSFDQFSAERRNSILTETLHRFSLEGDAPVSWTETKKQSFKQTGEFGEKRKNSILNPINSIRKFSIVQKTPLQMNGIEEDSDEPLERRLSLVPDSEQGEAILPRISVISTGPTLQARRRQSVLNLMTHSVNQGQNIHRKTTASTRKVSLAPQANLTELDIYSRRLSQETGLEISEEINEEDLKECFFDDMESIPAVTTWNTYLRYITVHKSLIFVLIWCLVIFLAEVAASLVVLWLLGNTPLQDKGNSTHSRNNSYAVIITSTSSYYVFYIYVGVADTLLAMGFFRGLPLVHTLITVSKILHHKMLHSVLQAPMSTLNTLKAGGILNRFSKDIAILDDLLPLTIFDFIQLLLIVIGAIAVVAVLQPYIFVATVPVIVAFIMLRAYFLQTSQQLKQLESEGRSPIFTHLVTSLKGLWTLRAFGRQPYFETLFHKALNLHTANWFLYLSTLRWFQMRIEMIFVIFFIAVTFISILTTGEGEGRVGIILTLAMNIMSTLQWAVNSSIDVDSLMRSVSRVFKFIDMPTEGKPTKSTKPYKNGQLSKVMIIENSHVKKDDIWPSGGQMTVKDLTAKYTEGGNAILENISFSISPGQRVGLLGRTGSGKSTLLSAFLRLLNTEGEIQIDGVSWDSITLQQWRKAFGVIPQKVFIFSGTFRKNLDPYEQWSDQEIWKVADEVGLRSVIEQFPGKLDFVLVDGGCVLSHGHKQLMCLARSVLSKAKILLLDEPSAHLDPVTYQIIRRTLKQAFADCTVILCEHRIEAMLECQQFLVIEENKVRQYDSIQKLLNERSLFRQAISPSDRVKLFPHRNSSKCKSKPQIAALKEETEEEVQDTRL
T1 sequence (P13569 with tags, fused parts or gaps DEL508-508): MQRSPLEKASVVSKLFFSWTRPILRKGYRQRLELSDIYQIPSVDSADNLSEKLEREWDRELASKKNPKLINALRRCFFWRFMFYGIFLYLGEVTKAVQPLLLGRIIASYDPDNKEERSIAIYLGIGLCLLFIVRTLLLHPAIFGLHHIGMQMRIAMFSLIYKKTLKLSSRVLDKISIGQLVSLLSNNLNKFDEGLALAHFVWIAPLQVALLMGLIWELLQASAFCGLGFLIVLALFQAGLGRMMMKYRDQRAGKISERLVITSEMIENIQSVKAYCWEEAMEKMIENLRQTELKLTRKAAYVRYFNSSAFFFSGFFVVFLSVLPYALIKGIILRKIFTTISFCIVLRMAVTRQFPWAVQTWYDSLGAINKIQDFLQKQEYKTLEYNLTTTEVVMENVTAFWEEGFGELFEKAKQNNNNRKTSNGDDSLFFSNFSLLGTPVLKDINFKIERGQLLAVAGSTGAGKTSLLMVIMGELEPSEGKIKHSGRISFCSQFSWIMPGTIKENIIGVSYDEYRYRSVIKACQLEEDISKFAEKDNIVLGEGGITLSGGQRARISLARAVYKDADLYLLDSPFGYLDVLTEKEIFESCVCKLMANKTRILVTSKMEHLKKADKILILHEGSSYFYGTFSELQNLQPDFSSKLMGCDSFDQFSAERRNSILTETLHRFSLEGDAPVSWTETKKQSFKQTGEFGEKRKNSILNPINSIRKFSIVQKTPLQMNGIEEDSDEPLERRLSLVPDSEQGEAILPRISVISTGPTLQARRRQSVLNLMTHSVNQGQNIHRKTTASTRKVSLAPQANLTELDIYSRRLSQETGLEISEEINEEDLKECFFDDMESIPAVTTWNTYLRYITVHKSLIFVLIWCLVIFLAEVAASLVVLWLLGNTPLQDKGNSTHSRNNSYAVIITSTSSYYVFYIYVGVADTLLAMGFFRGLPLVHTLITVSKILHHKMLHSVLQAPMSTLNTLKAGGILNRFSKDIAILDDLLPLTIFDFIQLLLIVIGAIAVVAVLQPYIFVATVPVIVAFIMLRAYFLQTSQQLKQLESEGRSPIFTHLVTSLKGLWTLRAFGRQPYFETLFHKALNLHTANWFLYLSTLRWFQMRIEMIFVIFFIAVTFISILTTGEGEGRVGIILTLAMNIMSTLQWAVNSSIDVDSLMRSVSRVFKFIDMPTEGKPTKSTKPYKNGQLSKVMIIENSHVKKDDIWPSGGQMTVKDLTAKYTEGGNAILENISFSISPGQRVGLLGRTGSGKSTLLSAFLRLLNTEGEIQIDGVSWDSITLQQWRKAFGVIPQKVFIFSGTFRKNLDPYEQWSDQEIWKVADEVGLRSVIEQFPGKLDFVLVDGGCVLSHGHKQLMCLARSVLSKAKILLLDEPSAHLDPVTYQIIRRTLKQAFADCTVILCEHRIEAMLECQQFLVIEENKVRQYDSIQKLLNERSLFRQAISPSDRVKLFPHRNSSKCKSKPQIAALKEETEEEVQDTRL

For `CC1(C)Cc2c(sc(NC(=O)c3nn(C(F)F)cc3Cl)c2C(N)=O)C(C)(C)O1` [Compound 116, N-(3-carbamoyl-5,5,7,7-tetramethyl-4H-thieno[2,3-c]pyran-2-yl)-4-chloro-1-(difluoromethyl)pyrazole-3-carboxamide], the EC50 – broadly, the concentration giving half of the maximal effect – in experiment [1] came out at 88 nM; in experiment [2] it was 1520 nM.

Turning to `CC1(C)Cc2c(sc(NC(=O)c3cccc(C(F)F)c3)c2C(N)=O)C(C)(C)O1` [Compound 122, 2-[[3-(difluoromethyl)benzoyl]amino]-5,5,7,7-tetramethyl-4H-thieno[2,3-c]pyran-3-carboxamide], the EC50 in experiment [1] is 41.7 nM; in experiment [2], 2380 nM.

As to `CC1(C)Cc2c(sc(NC(=O)CO)c2C(N)=O)C(C)(C)O1` [Compound 66, 2-[(2-hydroxyacetyl)amino]-5,5,7,7-tetramethyl-4H-thieno[2,3-c]pyran-3-carboxamide], the EC50 in experiment [1] worked out at 84 nM; in experiment [2] it was 3330 nM.

For the compound `COC/C=C/c1c[nH]nc1C(=O)Nc1sc2c(c1C(N)=O)CC(C)(C)OC2(C)C` [Compound 63, N-(3-carbamoyl-5,5,7,7-tetramethyl-4H-thieno[2,3-c]pyran-2-yl)-4-[(E)-3-methoxyprop-1-enyl]-1H-pyrazole-3-carboxamide], the EC50 in experiment [1] is 66.3 nM; in experiment [2], 1190 nM.

On to `COCCCc1c[nH]nc1C(=O)Nc1sc2c(c1C(N)=O)CC(C)(C)OC2(C)C` [Compound 65, N-(3-carbamoyl-5,5,7,7-tetramethyl-4H-thieno[2,3-c]pyran-2-yl)-4-(3-methoxypropyl)-1H-pyrazole-3-carboxamide], for which the EC50 worked out at 27 nM in experiment [1] and 1560 nM in experiment [2].

For the compound `CC1(C)Cc2c(sc(NC(=O)C(CO)CC3CC3)c2C(N)=O)C(C)(C)O1` (stereo not drawn) [Compound 84, 2-[[2-(cyclopropylmethyl)-3-hydroxy-propanoyl]amino]-5,5,7,7-tetramethyl-4H-thieno[2,3-c]pyran-3-carboxamide], the EC50 stood at 25.4 nM in experiment [1] and 3330 nM in experiment [2].

`CC(O)c1cc(C(=O)Nc2sc3c(c2C(N)=O)CC(C)(C)OC3(C)C)n[nH]1` (stereo not drawn) [Compound 61, 5-(1-Hydroxy-ethyl)-1H-pyrazole-3-carboxylic acid (3-carbamoyl-5,5,7,7-tetramethyl-4,7-dihydro-5H-thieno[2,3-c]pyran-2-yl)-amide]: the concentration for a half-maximal effect (EC50) is 188 nM in experiment [1] and 4160 nM in experiment [2].

With `CC(C)(C)CC(O)C(=O)Nc1sc2c(c1C(N)=O)CC(C)(C)OC2(C)C` (single isomer, unassigned) [Compound 109, 2-[[2-hydroxy-4,4-dimethyl-pentanoyl]amino]-5,5,7,7-tetramethyl-4H-thieno[2,3-c]pyran-3-carboxamide], the EC50 stood at 4.32 nM in experiment [1] and 3260 nM in experiment [2].

With `Cn1ncc(C(=O)Nc2sc3c(c2C(N)=O)CC(C)(C)OC3(C)C)c1C(F)(F)F` [Compound 137, N-(3-carbamoyl-5,5,7,7-tetramethyl-4H-thieno[2,3-c]pyran-2-yl)-1-methyl-5-(trifluoromethyl)pyrazole-4-carboxamide], the results for the half-maximal effective concentration (EC50) in experiment [1] and in experiment [2] were 128 nM and 2660 nM, respectively.

`CC1(C)Cc2c(sc(NC(=O)c3cc(C(C)(C)O)[nH]n3)c2C(N)=O)C(C)(C)O1` [Compound 64, N-(3-carbamoyl-5,5,7,7-tetramethyl-4H-thieno[2,3-c]pyran-2-yl)-5-(1-hydroxy-1-methyl-ethyl)-1H-pyrazole-3-carboxamide]: the concentration for a half-maximal effect (EC50) in experiment [1] was 167 nM; in experiment [2], 2900 nM.

Turning to `CC1(C)Cc2c(sc(NC(=O)CC(O)C(F)(F)F)c2C(N)=O)C(C)(C)O1` (stereo not drawn) [Compound 69, 5,5,7,7-tetramethyl-2-[(4,4,4-trifluoro-3-hydroxy-butanoyl)amino]-4H-thieno[2,3-c]pyran-3-carboxamide], the EC50 in experiment [1] stood at 34.2 nM; in experiment [2], 3330 nM.

On to `CC1(C)Cc2c(sc(NC(=O)c3ccn(C(F)F)n3)c2C(N)=O)C(C)(C)O1` [Compound 114, N-(3-carbamoyl-5,5,7,7-tetramethyl-4H-thieno[2,3-c]pyran-2-yl)-1-(difluoromethyl)pyrazole-3-carboxamide], for which the EC50 in experiment [1] was 40.9 nM; in experiment [2] it was 1710 nM.

On to `CC1(C)Cc2c(sc(NC(=O)c3ccccc3C(F)F)c2C(N)=O)C(C)(C)O1` [Compound 123, 2-[[2-(difluoromethyl)benzoyl]amino]-5,5,7,7-tetramethyl-4H-thieno[2,3-c]pyran-3-carboxamide], for which the concentration giving a half-maximal response (EC50) in experiment [1] was found to be 87.9 nM; in experiment [2], 825 nM.

With `CC1(C)Cc2c(sc(NC(=O)C(CO)C(C)(C)C)c2C(N)=O)C(C)(C)O1` (stereo not drawn) [Compound 90, 2-[[2-(hydroxymethyl)-3,3-dimethyl-butanoyl]amino]-5,5,7,7-tetramethyl-4H-thieno[2,3-c]pyran-3-carboxamide], the EC50 in experiment [1] came to 120 nM; in experiment [2], 3200 nM.

For the compound `CC1(C)Cc2c(sc(NC(=O)c3cocn3)c2C(N)=O)C(C)(C)O1` [Compound 129, N-(3-carbamoyl-5,5,7,7-tetramethyl-4H-thieno[2,3-c]pyran-2-yl)oxazole-4-carboxamide], the values for the concentration giving a half-maximal response (EC50) in experiment [1] and in experiment [2] were 77.3 nM and 2290 nM, respectively.

On to `CC1(C)Cc2c(sc(NC(=O)C3CC(F)(F)C3)c2C(N)=O)C(C)(C)O1` [Compound 47, 2-[(3,3-difluorocyclobutanecarbonyl)amino]-5,5,7,7-tetramethyl-4H-thieno[2,3-c]pyran-3-carboxamide], for which the values for the EC50 in experiment [1] and in experiment [2] were 118 nM and 4710 nM, respectively.

Regarding `CC1(C)Cc2c(sc(NC(=O)C(O)C3CC3)c2C(N)=O)C(C)(C)O1` (stereo not drawn) [Compound 60, 2-[(2-cyclopropyl-2-hydroxy-acetyl)amino]-5,5,7,7-tetramethyl-4H-thieno[2,3-c]pyran-3-carboxamide], the EC50 is 18.4 nM in experiment [1] and 6660 nM in experiment [2].

In the case of `Cn1nccc1C(=O)Nc1sc2c(c1C(N)=O)CC(C)(C)OC2(C)C` [Compound 120, N-(3-carbamoyl-5,5,7,7-tetramethyl-4H-thieno[2,3-c]pyran-2-yl)-2-methyl-pyrazole-3-carboxamide], the concentration giving a half-maximal response (EC50) is 121 nM in experiment [1] and 2410 nM in experiment [2].

`CCCCc1ccc(C(=O)Nc2sc3c(c2C(N)=O)CC(C)(C)OC3(C)C)c(=O)[nH]1` [Compound 139, 6-butyl-N-(3-carbamoyl-5,5,7,7-tetramethyl-4H-thieno[2,3-c]pyran-2-yl)-2-oxo-1H-pyridine-3-carboxamide]: the EC50 in experiment [1] worked out at 57 nM; in experiment [2], 577 nM.

For `CCC(O)C(=O)Nc1sc2c(c1C(N)=O)CC(C)(C)OC2(C)C` (stereo not drawn) [Compound 53, 2-(2-hydroxybutanoylamino)-5,5,7,7-tetramethyl-4H-thieno[2,3-c]pyran-3-carboxamide], the half-maximal effective concentration (EC50) in experiment [1] is 9.91 nM; in experiment [2], 3330 nM.

As to `CC1(C)Cc2c(sc(NC(=O)C3CCCO3)c2C(N)=O)C(C)(C)O1` (stereo not drawn) [Compound 162, 5,5,7,7-tetramethyl-2-(tetrahydrofuran-2-carbonylamino)-4H-thieno[2,3-c]pyran-3-carboxamide], the EC50 in experiment [1] was 602 nM.

In the case of `COCC(=O)Nc1sc2c(c1C(N)=O)CC(C)(C)OC2(C)C` [Compound 160, 2-[(2-methoxyacetyl)amino]-5,5,7,7-tetramethyl-4H-thieno[2,3-c]pyran-3-carboxamide], in experiment [1], the EC50 stood at 641 nM.

`COCC(C)(O)C(=O)Nc1sc2c(c1C(N)=O)CC(C)(C)OC2(C)C` (single isomer, unassigned) [Compound 166]: the 50% effective concentration (EC50) in experiment [1] stood at 116 nM.

Turning to `CC1(C)Cc2c(sc(NC(=O)C(O)C(F)(F)F)c2C(N)=O)C(C)(C)O1` (stereo not drawn) [Compound 167, 5,5,7,7-tetramethyl-2-[(3,3,3-trifluoro-2-hydroxy-propanoyl)amino]-4H-thieno[2,3-c]pyran-3-carboxamide], the EC50 in experiment [1] was determined as 7.58 nM.

Turning to `Cc1ccn2c(=O)c(C(=O)Nc3sc4c(c3C(N)=O)CC(C)(C)OC4(C)C)cnc2c1` [Compound 144, N-(3-carbamoyl-5,5,7,7-tetramethyl-4H-thieno[2,3-c]pyran-2-yl)-8-methyl-4-oxo-pyrido[1,2-a]pyrimidine-3-carboxamide], the 50% effective concentration (EC50) in experiment [1] turned out to be 472 nM.
